Reference: ChEMBL document CHEMBL4354831, “Novel Cell-Penetrating Peptide Conjugated Proteasome Inhibitors: Anticancer and Antifungal Investigations” (J Med Chem, 2020)
Calls of active or inactive are those of the source. The calls are words filed in the database; no cut-off is given here. Peptide text beside a SMILES is read from it.

Key:
BE(2)-C [1] = test: Induction of membrane blebbing in human BE(2)-C cells at 2xIC50 after 12 hrs by SEM analysis; format: cell-based; details: Cell membrane
HeLa [2] = test: Antiproliferative activity against human HeLa cells assessed as reduction in cell viability in presence of cisplatin after 48 hrs by MTT assay; format: functional, cell-based
BE(2)-C [3] = test: Induction of ROS generation in human BE(2)-C cells at 2xIC50 measured up to 24 hrs in presence of ROS quencher, ascorbic acid by DCFH-DA staining based fluorescence analysis; format: functional, cell-based
BE(2)-C [4] = test: Induction of necrosis in human BE(2)-C cells at 2xIC50 after 24 hrs by Annexin-V alexa fluor 488/PI staining based fluorescence microscopic analysis; format: functional, cell-based
BE(2)-C [5] = test: Induction of apoptosis in human BE(2)-C cells at 2xIC50 after 24 hrs by Annexin-V alexa fluor 488/PI staining based fluorescence microscopic analysis; format: functional, cell-based
[6] = Hemolytic activity in mouse RBC at 500 uM after 1 hr relative to control; format: ADME, cell-based, Erythrocyte; details: red blood cells (erythrocytes), read-out: Activity
BE(2)-C [7] = test: Induction of apoptosis in human BE(2)-C cells assessed as necrotic cells at 2xIC50 after 24 hrs by Alexa flour 488 annexin V/PI- staining based flow cytometric analysis relative to control; format: functional
Candida albicans [8] = test: Antifungal activity against Candida albicans SC5314 in presence of amphotericin B after 24 to 48 hrs by checker board assay; format: functional
HeLa [9] = test: Induction of membrane blebbing in human HeLa cells at 2xIC50 after 12 hrs by SEM analysis; format: cell-based; details: Cell membrane
BE(2)-C [10] = test: Induction of apoptosis in human BE(2)-C cells assessed as DNA damage at 2xIC50 after 24 hrs by SYTO9/PI-staining based inverted fluorescence microscopic analysis; format: functional, cell-based
BE(2)-C [11] = test: Induction of ROS generation in human BE(2)-C cells after 24 hrs by DCFH-DA staining based fluorescence analysis; format: functional, cell-based
HeLa [12] = test: Induction of apoptosis in human HeLa cells assessed as necrotic cells at 2xIC50 after 24 hrs by Alexa flour 488 annexin V/PI- staining based flow cytometric analysis relative to control; format: functional
BE(2)-C [13] = test: Induction of membrane disruption in human BE(2)-C cells assessed as membrane blebbing at 2xIC50 after 24 hrs by SYTO9/PI-staining based inverted fluorescence microscopic analysis; details: Cell membrane
HeLa [14] = test: Antiproliferative activity against human HeLa cells assessed as cell viability at 10.2 uM in presence of 6.3 uM cisplatin after 48 hrs by MTT assay relative to control; format: functional
BE(2)-C [15] = test: Antiproliferative activity against human BE(2)-C cells assessed as cell viability at 10.3 uM after 48 hrs by MTT assay relative to control; format: functional; details: read-out: Activity
Candida albicans [16] = test: Induction of pore formation in Candida albicans SC5314 membrane at 2xMBEC by SEM analysis; format: organism-based; details: Cell membrane
HeLa [17] = test: Induction of ROS generation in human HeLa cells at 2xIC50 by DCFH-DA staining based fluorescence analysis; format: functional, cell-based; details: TDE = time-dependent effect
BE(2)-C [18] = test: Antiproliferative activity against human BE(2)-C cells assessed as cell viability at 10.3 uM in presence of 5.3 uM cisplatin after 48 hrs by MTT assay relative to control; format: functional
HeLa [19] = test: Induction of ROS generation in human HeLa cells at 2xIC50 measured up to 24 hrs in presence of ROS quencher, ascorbic acid by DCFH-DA staining based fluorescence analysis; format: functional, cell-based
HeLa [20] = test: Antiproliferative activity against human HeLa cells assessed as cell viability at 10.2 uM after 48 hrs by MTT assay relative to control; format: functional; details: read-out: Activity
HeLa [21] = test: Induction of necrosis in human HeLa cells at 2xIC50 after 24 hrs by Annexin-V alexa fluor 488/PI staining based fluorescence microscopic analysis; format: functional, cell-based
Candida albicans [22] = test: Antibiofilm activity against 24 hrs preformed biofilm of Candida albicans SC5314 assessed as biofilm cell eradication at 125 uM after 24 hrs by XTT assay relative to control; format: functional
BE(2)-C [23] = test: Induction of apoptosis in human BE(2)-C cells assessed as apoptotic cells at 2xIC50 after 24 hrs by Alexa flour 488 annexin V/PI- staining based flow cytometric analysis relative to control; format: functional
Candida albicans [24] = test: Antibiofilm activity against 24 hrs preformed biofilm of Candida albicans SC5314 assessed as biofilm cell eradication at 62.5 uM after 24 hrs by XTT assay relative to control; format: functional
HeLa [25] = test: Antiproliferative activity against human HeLa cells assessed as cell viability at 4.7 uM after 48 hrs by MTT assay relative to control; format: functional; details: read-out: Activity
BE(2)-C [26] = test: Antiproliferative activity against human BE(2)-C cells assessed as cell viability at 4.7 uM in presence of 5.3 uM cisplatin after 48 hrs by MTT assay relative to control; format: functional
HeLa [27] = test: Antiproliferative activity against human HeLa cells assessed as cell viability at 4.7 uM in presence of 6.3 uM cisplatin after 48 hrs by MTT assay relative to control; format: functional
BE(2)-C [28] = test: Antiproliferative activity against human BE(2)-C cells assessed as cell viability at 4.7 uM after 48 hrs by MTT assay relative to control; format: functional; details: read-out: Activity

Row | SMILES | Activity (BE(2)-C [1]) | IC50 (HeLa [2]) [µM] | Activity (BE(2)-C [3]) | Activity (BE(2)-C [4]) | Activity (BE(2)-C [5]) | hemolysis at 1 h, 500 µM [6] [%] | Activity (BE(2)-C [7]) [%] | MIC (Candida albicans [8]) [µM] | Activity (HeLa [9]) | Activity (BE(2)-C [10]) | Activity (BE(2)-C [11]) | Activity (HeLa [12]) [%] | Activity (BE(2)-C [13]) | Activity (Candida albicans [16]) | Activity (HeLa [17]) | Activity (HeLa [19]) | Activity (HeLa [21]) | Activity (BE(2)-C [23]) [%] | other results
1 | CC(=O)N[C@@H](Cc1ccc(O)cc1)C(=O)NCC(=O)N[C@@H](CCCNC(=N)N)C(=O)N[C@@H](CCCCN)C(=O)N[C@@H](CCCCN)C(=O)N[C@@H](CCCNC(=N)N)C(=O)N[C@@H](CCCNC(=N)N)C(=O)N[C@@H](CCC(N)=O)C(=O)N[C@@H](CCCNC(=N)N)C(=O)N[C@@H](CCCNC(=N)N)C(=O)N[C@@H](CCCNC(=N)N)C(=O)NCC(=O)NCC(=O)NCC(=O)N[C@@H](CC(C)C)C(=O)N[C@@H](CC(C)C)C(=O)N[C@H](C=O)CC(C)C (Ac-YGRKKRRQRRRGGGLLL-aldehyde) | Active | 1.9 | inactive | Active | Active | 1 | 64.9 | 6.25 | Active | Active | Dose-dependent effect | 4.8 | Active | Active | Tde | inactive | Active | 27.2 | Activity (HeLa [14]): 14%; viability at 10.3 µM (BE(2)-C [15]): > 50%; Activity (BE(2)-C [18]): 13%; viability at 10.2 µM (HeLa [20]): 52%; Activity (Candida albicans [22]): >50%
2 | CC(=O)N[C@@H](Cc1ccc(O)cc1)C(=O)NCC(=O)N[C@@H](CCCNC(=N)N)C(=O)N[C@@H](CCCCN)C(=O)N[C@@H](CCCCN)C(=O)N[C@@H](CCCNC(=N)N)C(=O)N[C@@H](CCCNC(=N)N)C(=O)N[C@@H](CCC(N)=O)C(=O)N[C@@H](CCCNC(=N)N)C(=O)N[C@@H](CCCNC(=N)N)C(=O)N[C@@H](CCCNC(=N)N)C(=O)NCC(=O)NCC(=O)NCC(=O)N[C@@H](Cc1ccc(O)cc1)C(=O)N[C@@H](CC(C)C)C(=O)N[C@@H](Cc1ccccc1)C(=O)N[C@H](C=O)CC(C)C (Ac-YGRKKRRQRRRGGGYLFL-aldehyde) | Active | 1.16 | inactive | Active | Active | 12 | 65.4 | 3.12 | Active | Active | Dose-dependent effect | 2.8 | Active | Active | Tde | inactive | Active | 28.3 | Activity (Candida albicans [24]): >50%; viability at 4.7 µM (HeLa [25]): > 50%; Activity (BE(2)-C [26]): 11%; Activity (HeLa [27]): 18%; viability at 4.7 µM (BE(2)-C [28]): > 50%
